Assay results published in the supplement of paper PMC10307832.

Experiments:
Assay in all cases: relative viability (nuclei count vs DMSO), 5 days (fraction); higher = more cells survive
Dasatinib + Trametinib = compound: Cc1nc(Nc2ncc(C(=O)Nc3c(C)cccc3Cl)s2)cc(N2CCN(CCO)CC2)n1 [Dasatinib] + CC(=O)Nc1cccc(-n2c(=O)n(C3CC3)c(=O)c3c(Nc4ccc(I)cc4F)n(C)c(=O)c(C)c32)c1 [Trametinib] (partner 0.02 µM)
How it was run: (§1)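 Lung cancer cell lines were seeded in 1536-well plates and dosed by pin tool the next day, with either a single drug or a fixed anchor-drug dose combined with five library-drug doses (not always all listed) spaced in √10 steps. Five days later, one step fixed the cells and stained their nuclei (final 0.05% Triton X-100, 1% formaldehyde, 1 ug/ml Hoechst), and nuclei were counted on 4× images. Relative viability is the nuclei count in treated wells divided by the count in vehicle wells, and each value is the median of duplicate plates.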

ALW-II-49-7 + Olaparib = compound: Cc1ccc(C(=O)Nc2cccc(C(F)(F)F)c2)cc1Nc1cncc(C(N)=O)c1 [ALW-II-49-7] + O=C(c1cc(Cc2n[nH]c(=O)c3ccccc23)ccc1F)N1CCN(C(=O)C2CC2)CC1 [Olaparib] (partner 8 µM)
How it was run: as §1

Dasatinib + Crizotinib = compound: Cc1nc(Nc2ncc(C(=O)Nc3c(C)cccc3Cl)s2)cc(N2CCN(CCO)CC2)n1 [Dasatinib] + C[C@@H](Oc1cc(-c2cnn(C3CCNCC3)c2)cnc1N)c1c(Cl)ccc(F)c1Cl [Crizotinib] (partner 1 µM)
How it was run: as §1

XMD13-2 + Foretinib = compound: C1CC1C(=O)NC2=NNC3=C2C=CC(=C3)C4=CC(=CC=C4)C(=O)NC5CC5 [XMD13-2] + COc1cc2c(Oc3ccc(NC(=O)C4(C(=O)Nc5ccc(F)cc5)CC4)cc3F)ccnc2cc1OCCCN1CCOCC1 [Foretinib] (partner 0.25 µM)
How it was run: as §1

Cell Line | relative viability (Dasatinib + Trametinib; first compound 0.005 µM) | relative viability (Dasatinib + Trametinib; first compound 0.01581 µM) | relative viability (Dasatinib + Trametinib; first compound 0.05 µM) | relative viability (Dasatinib + Trametinib; first compound 0.1581 µM) | relative viability (Dasatinib + Trametinib; first compound 0.5 µM) | relative viability (ALW-II-49-7 + Olaparib; first compound 0.08 µM) | relative viability (ALW-II-49-7 + Olaparib; first compound 0.253 µM) | relative viability (ALW-II-49-7 + Olaparib; first compound 0.8 µM) | relative viability (ALW-II-49-7 + Olaparib; first compound 2.53 µM) | relative viability (ALW-II-49-7 + Olaparib; first compound 8 µM) | relative viability (Dasatinib + Crizotinib; first compound 0.005 µM) | relative viability (Dasatinib + Crizotinib; first compound 0.01581 µM) | relative viability (Dasatinib + Crizotinib; first compound 0.05 µM) | relative viability (Dasatinib + Crizotinib; first compound 0.1581 µM) | relative viability (Dasatinib + Crizotinib; first compound 0.5 µM) | relative viability (XMD13-2 + Foretinib; first compound 0.05 µM) | relative viability (XMD13-2 + Foretinib; first compound 0.1581 µM) | relative viability (XMD13-2 + Foretinib; first compound 0.5 µM) | relative viability (XMD13-2 + Foretinib; first compound 1.581 µM) | relative viability (XMD13-2 + Foretinib; first compound 5 µM)
HCC-44 | 1.11 | 0.94 | 1.16 | 1.17 | 0.574 | 0.928 | 1.04 | 0.995 | 0.957 | 0.935 | 0.86 | 0.904 | 0.945 | 0.36 | 0.213 | – | – | – | – | –
HCC-78 | 0.676 | 0.679 | 0.643 | 0.444 | 0.354 | 1.02 | 0.77 | 0.767 | 0.625 | 0.738 | 0.314 | 0.289 | 0.25 | 0.158 | 0.145 | 0.541 | 0.539 | 0.502 | 0.51 | 0.487
HCC-366 | 0.283 | 0.182 | 0.218 | 0.16 | 0.117 | 0.423 | 0.333 | 0.377 | 0.337 | 0.301 | 0.374 | 0.18 | 0.158 | 0.0803 | 0.0691 | 1.02 | 0.915 | 0.952 | 0.905 | 0.896
HCC-827 | 0.545 | 0.486 | 0.492 | 0.157 | 0.132 | 0.624 | 0.625 | 0.59 | 0.542 | 0.59 | 0.924 | 0.82 | 0.807 | 0.385 | 0.145 | 1.11 | 1.04 | 0.951 | 1.05 | 0.704
HOP-62 | 0.344 | 0.333 | 0.32 | 0.211 | 0.162 | 0.162 | 0.378 | 0.595 | – | 0.172 | 1.16 | 0.966 | 0.91 | 0.816 | 0.165 | 1.11 | 1.13 | 1.19 | 1.06 | 1
IA-LM | – | – | – | – | – | 0.823 | 0.718 | 0.726 | 0.628 | 0.355 | 1.05 | 1.06 | 1.45 | 0.674 | 0.442 | 1.07 | 1.29 | 1.12 | 1.11 | 0.621
LC-2-ad | 0.914 | 0.906 | 0.909 | 0.735 | 0.457 | 0.736 | 0.793 | 0.682 | 0.721 | 0.343 | 0.416 | 0.329 | 0.326 | 0.257 | 0.2 | 1.07 | 1.07 | 0.987 | 0.789 | 0.807
LCLC-97TM1 | 0.221 | 0.14 | 0.174 | 0.0952 | 0.0916 | 0.429 | 0.442 | 0.399 | 0.279 | 0.353 | 0.336 | 0.485 | 0.307 | 0.238 | 0.146 | 1.04 | 0.918 | 0.975 | 0.965 | 0.685
LCLC-103H | 0.687 | 0.598 | 0.574 | 0.535 | 0.516 | 0.724 | 0.79 | 0.771 | 0.714 | 0.762 | 0.992 | 1.05 | 0.968 | 0.734 | 0.488 | 0.759 | 0.726 | 0.735 | 0.61 | 0.575
NCI-H522 | 0.767 | 0.63 | 0.668 | 0.591 | 0.599 | 0.764 | 0.547 | 0.734 | 0.635 | 0.742 | – | – | – | – | – | – | – | – | – | –
NCI-H1299 | – | – | – | – | – | 0.94 | 0.972 | 0.988 | 0.73 | 0.761 | 0.966 | 0.975 | 0.779 | 0.274 | 0.256 | 1.02 | 1.12 | 1.15 | 1.14 | 1.16
NCI-H1395 | 1.12 | 0.968 | 1.03 | 0.605 | 0.327 | 0.473 | 0.449 | 0.435 | – | 0.459 | – | – | – | – | – | 0.983 | 1.02 | 1.05 | 0.992 | 1
NCI-H1563 | – | – | – | – | – | – | – | – | – | – | 0.803 | 0.673 | 0.679 | 0.592 | 0.577 | 0.883 | 1.06 | 0.99 | 0.961 | 0.866
NCI-H1623 | – | – | – | – | – | – | – | – | – | – | – | – | – | – | – | 0.898 | 0.864 | 0.892 | 0.824 | 0.947
NCI-H1648 | 0.437 | 0.352 | 0.44 | 0.235 | 0.175 | 1.52 | 0.684 | 0.656 | 0.48 | 0.808 | – | – | – | – | – | – | – | – | – | –
NCI-H1703 | – | – | – | – | – | 0.492 | 0.398 | 0.358 | 0.245 | 0.245 | 0.652 | 0.18 | 0.203 | 0.154 | 0.108 | 0.303 | 0.411 | – | 0.336 | 0.393
NCI-H1792 | 0.343 | 0.272 | 0.324 | 0.218 | 0.0771 | 0.501 | 0.384 | 0.6 | 0.327 | 0.342 | 0.938 | 0.916 | 0.874 | 0.753 | 0.51 | – | – | – | – | –
NCI-H1793 | 0.4 | 0.353 | 0.317 | 0.357 | 0.322 | 0.977 | 0.834 | 0.785 | 0.911 | 0.753 | – | – | – | – | – | 0.84 | – | 0.966 | 0.791 | 0.68
NCI-H2342 | 0.662 | 0.722 | 0.774 | 0.515 | 0.294 | 0.47 | 0.436 | 0.394 | 0.357 | 0.396 | – | – | – | – | – | 0.973 | 1.04 | 1.11 | 0.984 | 1.01
SW 900 | 0.783 | 0.474 | 0.405 | 0.393 | 0.188 | 0.652 | 0.759 | – | 0.741 | 0.931 | – | – | – | – | – | 1.1 | 0.963 | 0.922 | 0.963 | 0.677
